From patent US20250327023A1, “TAURINE SUPPLEMENTED CELL CULTURE MEDIUM AND METHODS OF USE” (Regeneron Pharmaceuticals, Inc., priority 2015, published 2025)

Columns and labels:
Assay type in all cases: cell-based, Chinese hamster
[1] = system: monoclonal antibody (Ab1) producing cell line derived from CHO-K1; assay: High-throughput shake flask culture, 17 days, antibody titer (Example 1A); conditions: 1 mM taurine at day 0
Description: Example 1A—High-Throughput Shake Flask Culture: 250 mL shake flasks were inoculated from a seed culture of a monoclonal antibody (Abl) producing cell line derived from CHO-K1. The inoculated cells were grown at 35.5° C. for seventeen days and fed glucose and other supplemental nutrients as needed. Cells were grown in chemically defined (hydrolysate-free and serum-free) base media. Each culture flask was either unsupplemented (Flask 1a), or supplemented with 1 mM taurine at day 0 (Flask 1 b).

[2] = system: monoclonal antibody (Ab2) producing cell line derived from CHO-K1; assay: Benchtop-scale 2L bioreactor culture, 14 days, antibody titer (Example 1B), Ab2; conditions: about 1 mM taurine on day 0, day 14; for Ab2 approximate titer increase relative to baseline: Bioreactor 2b vs 2a
Description: (§1) Example 1B—Benchtop-Scale Bioreactors: In a similar example, yet on a larger scale of production, 2L bioreactors were inoculated from a seed culture of a monoclonal antibody (Ab2, Ab3 or Ab4) producing cell line derived from CHO-K1. The inoculated cultures were grown at a temperature of 35.5° C., DO set point of 40.4% and air sparge of 22 ccm for 14 days. […] Glucose, antifoam and basal feed were supplied to the bioreactors as needed. Cultures were grown in unsupplemented medium (Bioreactor 2a, 3a, 4a) or grown in about 1 mM taurine-supplemented medium (Ab2 and Ab3) or about 3 mM taurine-supplemented medium (Ab4), added on day 0 of production (Bioreactors 2b, 3b and 4b, respectively).

[3] = system: monoclonal antibody (Ab3) producing cell line derived from CHO-K1; assay: Benchtop-scale 2L bioreactor culture, 14 days, antibody titer (Example 1B), Ab3; conditions: about 1 mM taurine on day 0; for Ab3 approximate titer increase at day 6 compared to unsupplemented medium collected on same day / Ab3 approximate titer increase at day 9 compared to unsupplemented medium collected on same day / Ab3 approximate titer increase relative to baseline: Bioreactor 3b vs 3a
Description: as §1

[4] = system: monoclonal antibody (Ab4) producing cell line derived from CHO-K1; assay: Benchtop-scale 2L bioreactor culture, 14 days, antibody titer (Example 1B), Ab4; conditions: about 3 mM taurine on day 0, day 14; for Ab4 approximate titer increase relative to baseline: Bioreactor 4b vs 4a
Description: as §1

[5] = system: monoclonal antibody (Ab1) producing cell line derived from CHO-K1; assay: Shake flask culture with varying taurine concentrations, 14 days, antibody titer (Example 2); conditions: for Ab1 % titer increase vs unsupplemented: day 14
Description: Consistency of the protein titer was tested by varying the amount of taurine added to the culture at production day 0. 250 mL shake flasks were inoculated from a seed culture of a monoclonal antibody (Ab1) producing cell line derived from CHO-K1. The inoculated cells were grown at 35.5° C. for fourteen days and fed glucose and other supplemental nutrients as needed. Cells were grown in chemically defined (hydrolysate-free and serum-free) base media. Each culture contained either no taurine (unsupplemented) or taurine at 0.1 mM, 0.3 mM, 0.5 mM, 0,7 mM, 1 mM, 3 mM, 5 mM, 7,5 mM or 10 mM concentrations.

Ab1-producing CHO cells [6] = assay: Shake flask culture, taurine in seed train expansion and/or production phase, 17 days, antibody titer (Example 3A); conditions: day 17
Description: The benefits of adding taurine to the culture during the expansion seed train phase were assessed in the high-throughput shake flask model. In flask 6a (Table 6), the Ab1-producing CHO cells were thawed in chemically defined (hydrolysate-free and serum-free) base media supplemented with 1 mM taurine. Taurine concentration of basal medium was maintained at 1 mM throughout the expansion phase. During production, the culture basal medium was supplemented with 1 mM taurine on day 0. Glucose and nutrient basal feed were supplied as needed during the 17 day production. Flask 6b cells grew in taurine-free (unsupplemented) chemically defined (hydrolysate-free and serum-free) basal medium throughout the seed train expansion phase. At day 0 of production, the culture basal medium was supplemented with 1 mM taurine. For the 17 day production, glucose and nutrient basal feeds were supplied as needed.

Ab1-producing CHO cells [7] = assay: Shake flask culture, varying taurine feeding schedules during production phase, antibody titer (Example 3B)
Description: Example 3B: Varying Taurine Feeding Schedules during Production Phase: To determine whether varying standard feeding schedules of taurine had any effect on the protein titer for taurine-supplemented cultures, additional experiments were conducted in analogous shake flask cultures growing Ab1-producing CHO cells. The cells were subjected to varying culture conditions similar to Example 2, where the feeding schedule was the same as before, glucose/nutrient basal feed was added as needed. Ab1-producing cultures were supplemented with a total of 5 mM taurine Similar productivity (7.1 g/L, 6.8 g/L and 7.0 g/L) is observed in varying taurine feeding schedules. Titer values as compared in this experiment are not statistically different (p>0.1) (see Table 7).

Ab1-producing CHO cells [8] = assay: Ammonia by-product in shake flask culture (Example 4); conditions: taurine supplemented medium
Description: […] The cells were subjected to varying culture conditions similar to above where glucose/nutrient base feed was added as needed.

[9] = 0.1 mM taurine at day 0, shake flask 5b
[10] = 0.3 mM taurine at day 0, shake flask 5c
[11] = 0.5 mM taurine at day 0, shake flask 5d
[12] = 0.7 mM taurine at day 0, shake flask 5e
[13] = 1 mM taurine at day 0, shake flask 5f
[14] = 5 mM taurine at day 0, shake flask 5g
[15] = 7.5 mM taurine at day 0, shake flask 5h
[16] = 10 mM taurine at day 0, shake flask 5i

NCCS(=O)(=O)O [Taurine, 2-aminoethanesulfonic acid]
Abl Titer (average 17-day antibody titer) ([1]; 250 mL shake flask 1b, harvested day 17): 7.9 g/L | Approximate titer increase relative to baseline ([1]; day 17, Flask 1b vs unsupplemented Flask 1a): 8% | Ab2 Titer (average 14 day antibody titer) ([2]; Bioreactor 2b): 8 g/L | Ab2 approximate titer increase relative to baseline [2]: 24% | Ab2 approximate titer increase relative to baseline ([2]; listed as taurine): 24% | Ab3 Titer at day 6 ([3]; Bioreactor 3b, day 6): 1.9 g/L | Ab3 Titer at day 9 ([3]; Bioreactor 3b, day 9): 5.3 g/L | Ab3 Titer (average 14 day antibody titer) ([3]; Bioreactor 3b, day 14): 7.3 g/L | Ab3 approximate titer increase at day 6 compared to unsupplemented medium collected on same day ([3]; day 6): 12% | Ab3 approximate titer increase at day 6 compared to unsupplemented medium collected on same day ([3]; day 6, listed as taurine): 12% | Ab3 approximate titer increase at day 9 compared to unsupplemented medium collected on same day ([3]; day 9): 29% | Ab3 approximate titer increase at day 9 compared to unsupplemented medium collected on same day ([3]; day 9, listed as taurine): 29% | Ab3 approximate titer increase relative to baseline ([3]; day 14): 11% | Ab3 approximate titer increase relative to baseline ([3]; day 14, listed as taurine): 11% | Ab4 Titer (average 14 day antibody titer) ([4]; Bioreactor 4b): 5.3 g/L | Ab4 approximate titer increase relative to baseline [4]: 20% | Ab4 approximate titer increase relative to baseline ([4]; listed as taurine): 20% | Ab1 Titer (average 14-day) [5, 9]: 6.7 g/L | Ab1 % titer increase vs unsupplemented [5, 9]: 3% | Ab1 Titer (average 14-day) [5, 10]: 6.8 g/L | Ab1 % titer increase vs unsupplemented [5, 10]: 5% | Ab1 Titer (average 14-day) [5, 11]: 6.9 g/L | Ab1 % titer increase vs unsupplemented [5, 11]: 6% | Ab1 Titer (average 14-day) [5, 12]: 7.0 g/L | Ab1 % titer increase vs unsupplemented [5, 12]: 8% | Ab1 Titer (average 14-day) [5, 13]: 7.0 g/L | Ab1 % titer increase vs unsupplemented [5, 13]: 8% | Ab1 Titer (average 14-day) [5, 14]: 7.1 g/L | Ab1 % titer increase vs unsupplemented [5, 14]: 9% | Ab1 Titer (average 14-day) [5, 15]: 7.1 g/L | Ab1 % titer increase vs unsupplemented [5, 15]: 9% | Ab1 Titer (average 14-day) [5, 16]: 7.1 g/L | Ab1 % titer increase vs unsupplemented [5, 16]: 9% | Ab1 Titer (average 17-day) (Ab1-producing CHO cells [6]; 1 mM taurine in Only Production Phase, shake flask 6b): 7.8 g/L | Ab1 Titer (average 17-day) (Ab1-producing CHO cells [6]; 1 mM taurine in Seed Train and Production Phases, shake flask 6a): 7.7 g/L | Ab1 Day 14 Titer (Ab1-producing CHO cells [7]; taurine schedule: 1 mM day 0, 2 mM days 7, 10 (5 mM total)): 7.0 g/L | Ab1 Day 14 Titer (Ab1-producing CHO cells [7]; taurine schedule: 1 mM days 0, 3, 5, 7, 10 (5 mM total)): 6.8 g/L | Ab1 Day 14 Titer (Ab1-producing CHO cells [7]; taurine schedule: 5 mM day 0): 7.1 g/L | Abl Ammonia (average 17-day ammonia) (Ab1-producing CHO cells [8]): 1.73 mM″ | Ammonia decrease compared to unsupplemented medium (Ab1-producing CHO cells [8]; listed as taurine): 32%
